Patent US8476256B2, “Diazonamide analogs” (Joyant Pharmaceuticals, Inc., priority 2008, dated 2013)

Assays:
[1] = system: A2058 (human melanoma) cell line; test: Cell viability assay (CELL-TITER-GLO), A2058; format: cell-based; conditions: A2058 cells, 48 hour treatment, 1 nM to 1 μM
Procedure: (§1) Cell viability assays were run using standard protocols known to those of skill in art. Cells were plated in 96 well plates at the density of 3,000-10,000 cells per well. Twenty four hours later, cells were treated with increasing concentration of test compounds (1 nM to 1 μM). After another 48 hour, cell survival was measured using CELL-TITER-GLO® reagent (Promega) following the protocol provided by the manufacture. The IC50 value was determined as the concentration of test compound that kills 50% of the cell population.
(§2) Cell viability data generated according to the protocol described herein was generated for representative compounds in the A2058 (human melanoma) and U937 (human leukemic monocyte lymphoma) cell lines. The compound of Example 16 (“Compound J”) was used as a reference compound.

[2] = system: U937 (human leukemic monocyte lymphoma) cell line; test: Cell viability assay (CELL-TITER-GLO), U937; format: cell-based; conditions: U-937, U937 cells, 48 hour treatment, 1 nM to 1 μM
Procedure: as §1, §2

[3] = system: MiaPaca (pancreatic cancer) cells; test: MiaPaca xenograft model, tumor free animals; format: in vivo, Athymic nude mice; conditions: 20 mg/kg, tail vein injection, 6 injections (days 9, 11, 14, 16, 18, 21); at 35 days post tumor cell injection; 7 mice/group
Procedure: Animals: Athymic nude mice, female, 6-7 weeks old, 20-25 g. Animals bearing with 180-400 mg tumors were selected for experiment. 7 mice/group.
Administration: Tail vein injection, 200 μL/mouse, to provide the dose indicated.
Dosing schedule: 6 injections were given on the days indicated post-tumor cell injection.
Controls: Vehicle, Compound J at 20 mg/kg.
Test Compound preparation: Compound J and all test compounds were dissolved in 50% Cremophore/EtOH (1:1) at 10 mg/mL as stock solution. Each compound solution was diluted with saline before injection to the concentration indicated.
Xenograft Model: MiaPaca (pancreatic cancer) cells
Dosing schedule: 6 injections were given on days 9, 11, 14, 16, 18 and 21 post-tumor cell injection.
Test Compounds: Example 23, Example 24, and Example 53, at 20 mg/kg.
For animals treated with the compound of Example 24 at 20 mg/kg, 7 of 7 animals were tumor free at 35 days post tumor cell injection.

| Compound | IC50 [1] [µM] | IC50 [2] [µM] | Tumor-free animals out of 7 [3] |
| --- | --- | --- | --- |
| CC(C)[C@H](O)C(=O)N[C@H]1Cc2ccc3c(c2)[C@]24C5=C(N=C(O5)[C@H](C(C)C)NC1=O)c1ncc(o1)-c1c[nH]c5cccc(c15)-c1cccc2c1NC4O3 (stereo partly shown) [Example 16, reference compound] | 0.043 | 0.034 | 0/7 (35) |
| CC(C)=CCC/C(C)=C/C(=O)NC1Cc2ccc3c(c2)[C@]24C5=C(N=C(O5)[C@H](C(C)C)NC1=O)c1ncc(o1)-c1c[nH]c5cccc(c15)-c1cccc2c1NC4O3 (stereo partly shown) [Example 45] | 0.887 | 0.78 |  |
| CO[C@@](C(=O)NC1Cc2ccc3c(c2)[C@]24C5=C(N=C(O5)[C@H](C(C)C)NC1=O)c1ncc(o1)-c1c[nH]c5cccc(c15)-c1cccc2c1NC4O3)(c1ccccc1)C(F)(F)F (stereo partly shown) [Example 57] | 0.58 | 0.618 |  |
| CCC(C)(C)C(=O)NC1Cc2ccc3c(c2)[C@]24C5=C(N=C(O5)[C@H](C(C)C)NC1=O)c1ncc(o1)-c1c[nH]c5cccc(c15)-c1cccc2c1NC4O3 (stereo partly shown) [Example 40] | 0.233 | 0.164 |  |
| CO[C@H](C(=O)N[C@H]1Cc2ccc3c(c2)C24C5=C(N=C(O5)[C@H](C(C)C)NC1=O)c1ncc(o1)-c1c[nH]c5cccc(c15)-c1cccc2c1N[C@H]4O3)C(C)C (stereo partly shown) [Example 30] | 0.197 | 0.224 |  |
| CC(C)[C@H](O)C(=O)N[C@H]1Cc2ccc3c(c2)C24C5=C(N=C(O5)[C@H](C(C)C)NC1=O)c1ncc(o1)-c1c[nH]c5cccc(c15)-c1cc(Br)cc2c1N[C@H]4O3 (stereo partly shown) [Example 84] | 0.51 | 0.648 |  |
| CCC(O)(CC)C(=O)N[C@H]1Cc2ccc3c(c2)C24C5=C(N=C(O5)[C@H](C(C)C)NC1=O)c1nc(Br)c(o1)-c1c[nH]c5cccc(c15)-c1cc(Br)cc2c1N[C@H]4O3 (stereo partly shown) [Example 88] | > 1 | > 1 |  |
| CC(C)[C@H](O)C(=O)N[C@H]1Cc2ccc3c(c2)C24C5=C(N=C(O5)[C@H](C(C)C)NC1=O)c1nc(Br)c(o1)-c1c(Cl)[nH]c5cccc(c15)-c1cccc2c1N[C@H]4O3 (stereo partly shown) [Example 89] | 0.158 | 0.079 |  |
| CC(C)[C@@H]1NC(=O)C(NC(C[N+](=O)[O-])C(F)(F)F)Cc2ccc3c(c2)C24C5=C(N=C1O5)c1ncc(o1)-c1c[nH]c5cccc(c15)-c1cccc2c1N[C@H]4O3 (stereo partly shown) [Example 92] | > 1 | 0.75 |  |
| CC(=O)N[C@H](C(=O)N[C@H]1Cc2ccc3c(c2)C24C5=C(N=C(O5)[C@H](C(C)C)NC1=O)c1ncc(o1)-c1c[nH]c5cccc(c15)-c1cccc2c1N[C@H]4O3)C(C)C (stereo partly shown) [Example 35] | 0.232 | 0.183 |  |
| CC(C)[C@H](O)C(=O)N[C@H]1Cc2ccc3c(c2)C24C5=C(N=C(O5)[C@H](C(C)C)NC1=O)c1nc(Cl)c(o1)-c1c(Cl)[nH]c5cccc(c15)-c1cccc2c1N[C@H]4O3 (stereo in doubt) [Example 85, Diazonamide A] | 0.057 | 0.086 |  |
| CCC(CO)(CO)C(=O)NC1Cc2ccc3c(c2)[C@]24C5=C(N=C(O5)[C@H](C(C)C)NC1=O)c1ncc(o1)-c1c[nH]c5cccc(c15)-c1cccc2c1NC4O3 (stereo partly shown) [Example 28] | 0.208 | 0.133 |  |
| CC(C)[C@@H]1NC(=O)C(NC(=O)C(C)(C)C)Cc2ccc3c(c2)[C@]24C5=C(N=C1O5)c1ncc(o1)-c1c[nH]c5cccc(c15)-c1cccc2c1NC4O3 (stereo partly shown) [Example 60] | 0.538 | 0.255 |  |
| CC/C=C/C(=O)NC1Cc2ccc3c(c2)[C@]24C5=C(N=C(O5)[C@H](C(C)C)NC1=O)c1ncc(o1)-c1c[nH]c5cccc(c15)-c1cccc2c1NC4O3 (stereo partly shown) [Example 43] | 0.356 | 0.186 |  |
| CC(C)CC(=O)N[C@H]1Cc2ccc3c(c2)[C@]24C5=C(N=C(O5)[C@H](C(C)C)NC1=O)c1ncc(o1)-c1c[nH]c5cccc(c15)-c1cccc2c1NC4O3 (stereo partly shown) [Example 38] | 0.417 | 0.216 |  |
| CCC(O)(CC)C(=O)N[C@H]1Cc2ccc3c(c2)C24C5=C(N=C(O5)[C@H](C(C)C)NC1=O)c1ncc(o1)-c1c[nH]c5c(O)ccc(c15)-c1cccc2c1N[C@H]4O3 (stereo partly shown) [Example 80] | 0.183 | 0.182 |  |
| CC(=O)O[C@H](C(=O)N[C@H]1Cc2ccc3c(c2)C24C5=C(N=C(O5)[C@H](C(C)C)NC1=O)c1ncc(o1)-c1c[nH]c5cccc(c15)-c1cccc2c1N[C@H]4O3)C(C)C (stereo partly shown) [Example 31] | 0.194 | 0.062 |  |
| CC(C)[C@@H]1NC(=O)C(NC(=O)[C@H](O)[C@@H](NC(=O)c2ccccc2)c2ccccc2)Cc2ccc3c(c2)[C@]24C5=C(N=C1O5)c1ncc(o1)-c1c[nH]c5cccc(c15)-c1cccc2c1NC4O3 (stereo partly shown) [Example 29] | > 1 | > 1 |  |

| Compound | IC50 [1] [µM] | IC50 [2] [µM] | Tumor-free animals out of 7 [3] |
| --- | --- | --- | --- |
| CC(C)C1NC(=O)[C@@H](NC(=O)[C@@H]2CCCN2)Cc2ccc3c(c2)C24C5=C(N=C1O5)c1ncc(o1)-c1c[nH]c5cccc(c15)-c1cccc2c1N[C@H]4O3 (stereo partly shown) [Example 36] | > 1 | > 1 |  |
| CC(C)[C@@H]1NC(=O)C(NC(=O)C2CC2)Cc2ccc3c(c2)[C@]24C5=C(N=C1O5)c1ncc(o1)-c1c[nH]c5cccc(c15)-c1cccc2c1NC4O3 (stereo partly shown) [Example 48] | 0.457 | 0.22 |  |
| CC(C)[C@@H]1NC(=O)C(NC(=O)[C@@H](O)C2CCCCC2)Cc2ccc3c(c2)[C@]24C5=C(N=C1O5)c1ncc(o1)-c1c[nH]c5cccc(c15)-c1cccc2c1NC4O3 (stereo partly shown) [Example 21] | > 1 | > 1 |  |
| CC(C)[C@@H]1NC(=O)C(NC(=O)[C@H]2CCOC2)Cc2ccc3c(c2)[C@]24C5=C(N=C1O5)c1ncc(o1)-c1c[nH]c5cccc(c15)-c1cccc2c1NC4O3 (stereo partly shown) [Example 53] | 0.209 | 0.078 | 1/7 (35) |
| CC(C)[C@@H]1NC(=O)C(NC=O)Cc2ccc3c(c2)C24C5=C(N=C1O5)c1ncc(o1)-c1c[nH]c5cccc(c15)-c1cccc2c1N[C@H]4O3 (stereo partly shown) [Example 66] | 0.766 | 0.499 |  |
| CC(C)[C@H](O)C(=O)NC1Cc2ccc3c(c2)C24C5=C(N=C(O5)[C@H](C(C)C)NC1=O)c1ncc(o1)-c1c[nH]c5c(O)ccc(c15)-c1cccc2c1N[C@H]4O3 (stereo partly shown) [Example 77] | 0.07 | 0.052 |  |
| CCC(C)(O)C(=O)NC1Cc2ccc3c(c2)[C@]24C5=C(N=C(O5)[C@H](C(C)C)NC1=O)c1ncc(o1)-c1c[nH]c5cccc(c15)-c1cccc2c1NC4O3 (stereo partly shown) [Example 23] | 0.124 | 0.156 | 0/7 (35) |
| CCC(O)(CC)C(=O)N[C@H]1Cc2ccc3c(c2)C24C5=C(N=C(O5)[C@H](C(C)C)NC1=O)c1ncc(o1)-c1cn(C)c5c(OC)ccc(c15)-c1cccc2c1N[C@H]4O3 (stereo partly shown) [Example 82] | 0.029 | 0.021 |  |
| CC/C=C(\C)C(=O)NC1Cc2ccc3c(c2)[C@]24C5=C(N=C(O5)[C@H](C(C)C)NC1=O)c1ncc(o1)-c1c[nH]c5cccc(c15)-c1cccc2c1NC4O3 (stereo partly shown) [Example 44] | 0.587 | 0.399 |  |
| CCC(O)(CC)C(=O)N[C@H]1Cc2ccc3c(c2)C24C5=C(N=C(O5)[C@H](C(C)C)NC1=O)c1ncc(o1)-c1c[nH]c5c(OC)ccc(c15)-c1cccc2c1N[C@H]4O3 (stereo partly shown) [Example 81] | 0.123 | 0.054 |  |
| CC(C)[C@@H]1NC(=O)C(NC(=O)[C@@H](O)C(C)(C)C)Cc2ccc3c(c2)[C@]24C5=C(N=C1O5)c1ncc(o1)-c1c[nH]c5cccc(c15)-c1cccc2c1NC4O3 (stereo partly shown) [Example 19] | 0.222 | 0.062 |  |
| CC(C)[C@H](O)C(=O)N[C@H]1Cc2ccc3c(c2)C24C5=C(N=C(O5)[C@H](C(C)C)NC1=O)c1nc(Cl)c(o1)-c1c[nH]c5cccc(c15)-c1cccc2c1N[C@H]4O3 (stereo partly shown) [Example 86] | 0.081 | 0.084 |  |
| COc1ccc2c3c(cn(C)c13)-c1cnc(o1)-c1nc3oc1C14c5cc(ccc5O[C@@H]1Nc1c-2cccc14)CC(NC(=O)[C@@H](O)C(C)C)C(=O)N[C@H]3C(C)C (stereo partly shown) [Example 79] | 0.022 | 0.027 |  |
| CN[C@H](C(=O)N[C@H]1Cc2ccc3c(c2)C24C5=C(N=C(O5)[C@H](C(C)C)NC1=O)c1ncc(o1)-c1c[nH]c5cccc(c15)-c1cccc2c1N[C@H]4O3)C(C)C (stereo partly shown) [Example 34] | 0.221 | 0.393 |  |
| C=CCOC(=O)NC1Cc2ccc3c(c2)[C@]24C5=C(N=C(O5)[C@H](C(C)C)NC1=O)c1ncc(o1)-c1c[nH]c5cccc(c15)-c1cccc2c1NC4O3 (stereo partly shown) [Example 71] | 0.451 | 0.185 |  |
| CC(C)[C@@H]1NC(=O)C(NC(=O)C2(O)CCCCC2)Cc2ccc3c(c2)[C@]24C5=C(N=C1O5)c1ncc(o1)-c1c[nH]c5cccc(c15)-c1cccc2c1NC4O3 (stereo partly shown) [Example 27] | 0.181 | 0.128 |  |
| C#CCOC(=O)NC1Cc2ccc3c(c2)[C@]24C5=C(N=C(O5)[C@H](C(C)C)NC1=O)c1ncc(o1)-c1c[nH]c5cccc(c15)-c1cccc2c1NC4O3 (stereo partly shown) [Example 70] | 0.692 | 0.434 |  |
